Measured values: the NIST ThermoML archive (doi:10.1016/j.jct.2017.07.008)
Several values for one entry are separate records, joined by “and”; a condition that tells them apart may be missing. Equal entries are not always repeated. ± gives the expanded uncertainty stated by the source.

Conditions: for mass density / viscosity / speed of sound: Liquid; for mass density: Vibrating tube method; for surface tension liquid-gas: Drop volume; for viscosity: Capillary tube (Ostwald / Ubbelohde) method; for speed of sound: Frequency=3 MHz, Single path-length method

## O=Cc1cccs1 [2-thiophenealdehyde]
313.15 K, 65000 kPa
  mass density: 1238.47 ± 0.98 kg/m3
315.65 K
  surface tension liquid-gas: 43.89 ± 0.32 mN/m
315.65 K, 100 kPa
  viscosity: 1.528 ± 0.018 mPa·s
  speed of sound: 1404.1 ± 0.95 m/s
  mass density: 1199.69 ± 0.57 kg/m3
318.15 K
  surface tension liquid-gas: 43.6 ± 0.32 mN/m
318.15 K, 100 kPa
  viscosity: 1.473 ± 0.018 mPa·s
  speed of sound: 1395.9 ± 0.95 m/s
  mass density: 1197.17 ± 0.57 kg/m3 and 1197.16 ± 0.57 kg/m3
318.15 K, 2000 kPa
  mass density: 1198.45 ± 0.57 kg/m3
318.15 K, 5000 kPa
  mass density: 1200.45 ± 0.58 kg/m3
318.15 K, 7000 kPa
  mass density: 1201.76 ± 0.59 kg/m3
318.15 K, 10000 kPa
  mass density: 1203.7 ± 0.6 kg/m3
318.15 K, 15000 kPa
  mass density: 1206.86 ± 0.63 kg/m3
318.15 K, 20000 kPa
  mass density: 1209.92 ± 0.65 kg/m3
318.15 K, 25000 kPa
  mass density: 1212.9 ± 0.68 kg/m3
318.15 K, 30000 kPa
  mass density: 1215.8 ± 0.71 kg/m3
318.15 K, 35000 kPa
  mass density: 1218.62 ± 0.74 kg/m3
318.15 K, 40000 kPa
  mass density: 1221.37 ± 0.77 kg/m3
318.15 K, 45000 kPa
  mass density: 1224.05 ± 0.81 kg/m3
318.15 K, 50000 kPa
  mass density: 1226.67 ± 0.85 kg/m3
318.15 K, 55000 kPa
  mass density: 1229.23 ± 0.88 kg/m3
318.15 K, 60000 kPa
  mass density: 1231.73 ± 0.92 kg/m3
318.15 K, 65000 kPa
  mass density: 1234.18 ± 0.96 kg/m3
320.65 K
  surface tension liquid-gas: 43.28 ± 0.32 mN/m
320.65 K, 100 kPa
  viscosity: 1.418 ± 0.017 mPa·s
  speed of sound: 1387.6 ± 0.95 m/s
  mass density: 1194.65 ± 0.56 kg/m3
323.15 K
  surface tension liquid-gas: 43.01 ± 0.32 mN/m
323.15 K, 100 kPa
  viscosity: 1.375 ± 0.017 mPa·s
  speed of sound: 1379.3 ± 0.95 m/s
  mass density: 1192.12 ± 0.56 kg/m3
323.15 K, 2000 kPa
  mass density: 1193.44 ± 0.57 kg/m3
323.15 K, 5000 kPa
  mass density: 1195.49 ± 0.58 kg/m3
323.15 K, 7000 kPa
  mass density: 1196.83 ± 0.59 kg/m3
323.15 K, 10000 kPa
  mass density: 1198.82 ± 0.6 kg/m3
323.15 K, 15000 kPa
  mass density: 1202.04 ± 0.62 kg/m3
323.15 K, 20000 kPa
  mass density: 1205.17 ± 0.65 kg/m3
323.15 K, 25000 kPa
  mass density: 1208.22 ± 0.68 kg/m3
323.15 K, 30000 kPa
  mass density: 1211.17 ± 0.7 kg/m3
323.15 K, 35000 kPa
  mass density: 1214.05 ± 0.73 kg/m3
323.15 K, 40000 kPa
  mass density: 1216.86 ± 0.77 kg/m3
323.15 K, 45000 kPa
  mass density: 1219.59 ± 0.8 kg/m3
323.15 K, 50000 kPa
  mass density: 1222.26 ± 0.84 kg/m3
323.15 K, 55000 kPa
  mass density: 1224.86 ± 0.87 kg/m3
323.15 K, 60000 kPa
  mass density: 1227.41 ± 0.91 kg/m3
323.15 K, 65000 kPa
  mass density: 1229.89 ± 0.95 kg/m3
325.65 K
  surface tension liquid-gas: 42.68 ± 0.32 mN/m
325.65 K, 100 kPa
  viscosity: 1.325 ± 0.016 mPa·s
  speed of sound: 1371.1 ± 0.95 m/s
  mass density: 1189.6 ± 0.56 kg/m3
328.15 K
  surface tension liquid-gas: 42.39 ± 0.32 mN/m
328.15 K, 100 kPa
  viscosity: 1.275 ± 0.015 mPa·s
  speed of sound: 1362.8 ± 0.95 m/s
  mass density: 1187.08 ± 0.56 kg/m3 and 1187.07 ± 0.56 kg/m3
328.15 K, 2000 kPa
  mass density: 1188.42 ± 0.57 kg/m3
328.15 K, 5000 kPa
  mass density: 1190.52 ± 0.58 kg/m3
328.15 K, 7000 kPa
  mass density: 1191.9 ± 0.59 kg/m3
328.15 K, 10000 kPa
  mass density: 1193.93 ± 0.6 kg/m3
328.15 K, 15000 kPa
  mass density: 1197.23 ± 0.62 kg/m3
328.15 K, 20000 kPa
  mass density: 1200.43 ± 0.64 kg/m3
328.15 K, 25000 kPa
  mass density: 1203.54 ± 0.67 kg/m3
328.15 K, 30000 kPa
  mass density: 1206.56 ± 0.7 kg/m3
328.15 K, 35000 kPa
  mass density: 1209.49 ± 0.73 kg/m3
328.15 K, 40000 kPa
  mass density: 1212.35 ± 0.76 kg/m3
328.15 K, 45000 kPa
  mass density: 1215.13 ± 0.79 kg/m3
328.15 K, 50000 kPa
  mass density: 1217.85 ± 0.83 kg/m3
328.15 K, 55000 kPa
  mass density: 1220.5 ± 0.87 kg/m3
328.15 K, 60000 kPa
  mass density: 1223.09 ± 0.9 kg/m3
328.15 K, 65000 kPa
  mass density: 1225.62 ± 0.94 kg/m3
330.65 K
  surface tension liquid-gas: 42.09 ± 0.31 mN/m
330.65 K, 100 kPa
  viscosity: 1.233 ± 0.015 mPa·s
  speed of sound: 1354.6 ± 0.95 m/s
  mass density: 1184.55 ± 0.56 kg/m3
333.15 K
  surface tension liquid-gas: 41.76 ± 0.31 mN/m
333.15 K, 100 kPa
  viscosity: 1.194 ± 0.014 mPa·s
  speed of sound: 1346.4 ± 0.95 m/s
  mass density: 1182.02 ± 0.56 kg/m3
